Source: PMC7614683, “A small molecule PI3Kα activator for cardioprotection and neuroregeneration” (Nature, 2023)
Like-named read-outs stand apart in the source and are kept apart here.

Columns and labels:
Test in all cases: SelectScreen Z-LYTE kinase activity assay (SI Table 6)
Assay type in all cases: biochemical
[1] = target: T1, protein kinases of the Z-LYTE panel (Homo sapiens, UniProt P30530)
T1 sequence (P30530 26-894): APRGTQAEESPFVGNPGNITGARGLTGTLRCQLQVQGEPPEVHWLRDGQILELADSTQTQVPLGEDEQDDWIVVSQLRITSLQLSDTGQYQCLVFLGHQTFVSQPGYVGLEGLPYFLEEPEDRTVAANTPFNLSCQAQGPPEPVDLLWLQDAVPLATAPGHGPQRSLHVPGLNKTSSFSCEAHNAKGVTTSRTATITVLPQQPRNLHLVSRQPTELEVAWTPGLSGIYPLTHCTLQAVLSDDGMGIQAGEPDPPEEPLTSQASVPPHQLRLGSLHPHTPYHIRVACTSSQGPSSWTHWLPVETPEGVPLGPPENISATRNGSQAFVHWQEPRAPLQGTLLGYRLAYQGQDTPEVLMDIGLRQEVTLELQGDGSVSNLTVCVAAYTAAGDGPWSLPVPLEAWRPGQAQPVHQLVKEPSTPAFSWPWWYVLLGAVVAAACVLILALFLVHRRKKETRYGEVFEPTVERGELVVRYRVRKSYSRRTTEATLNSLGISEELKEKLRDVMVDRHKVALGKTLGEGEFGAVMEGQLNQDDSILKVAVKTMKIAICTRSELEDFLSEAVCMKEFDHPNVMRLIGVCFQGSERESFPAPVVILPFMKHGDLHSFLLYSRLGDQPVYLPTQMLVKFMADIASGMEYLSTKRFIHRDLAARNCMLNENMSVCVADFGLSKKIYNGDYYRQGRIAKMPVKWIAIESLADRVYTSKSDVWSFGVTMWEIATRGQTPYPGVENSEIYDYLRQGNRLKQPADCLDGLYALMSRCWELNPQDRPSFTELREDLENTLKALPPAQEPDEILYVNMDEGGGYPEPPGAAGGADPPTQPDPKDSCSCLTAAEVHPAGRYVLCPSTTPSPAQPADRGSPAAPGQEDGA
How it was run: (§1)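 A single compound concentration of 1 μM was profiled in the vendor's Adapta, Lantha and Z-LYTE kinase assays. In gel-based follow-ups with 200 μM compound, phosphorylation was resolved on Phos-tag SDS-PAGE and quantified by Coomassie. The ATM run used 1 mM ATP with GST-p53 for 30 min, and the mTORC1 run used 250 μM ATP with 4E-BP1 for 3 h.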

[2] = target: protein kinases of the Z-LYTE panel (Homo sapiens, UniProt P04629)
Sequence of protein kinases of the Z-LYTE panel (Homo sapiens, UniProt P04629) (P04629 33-796): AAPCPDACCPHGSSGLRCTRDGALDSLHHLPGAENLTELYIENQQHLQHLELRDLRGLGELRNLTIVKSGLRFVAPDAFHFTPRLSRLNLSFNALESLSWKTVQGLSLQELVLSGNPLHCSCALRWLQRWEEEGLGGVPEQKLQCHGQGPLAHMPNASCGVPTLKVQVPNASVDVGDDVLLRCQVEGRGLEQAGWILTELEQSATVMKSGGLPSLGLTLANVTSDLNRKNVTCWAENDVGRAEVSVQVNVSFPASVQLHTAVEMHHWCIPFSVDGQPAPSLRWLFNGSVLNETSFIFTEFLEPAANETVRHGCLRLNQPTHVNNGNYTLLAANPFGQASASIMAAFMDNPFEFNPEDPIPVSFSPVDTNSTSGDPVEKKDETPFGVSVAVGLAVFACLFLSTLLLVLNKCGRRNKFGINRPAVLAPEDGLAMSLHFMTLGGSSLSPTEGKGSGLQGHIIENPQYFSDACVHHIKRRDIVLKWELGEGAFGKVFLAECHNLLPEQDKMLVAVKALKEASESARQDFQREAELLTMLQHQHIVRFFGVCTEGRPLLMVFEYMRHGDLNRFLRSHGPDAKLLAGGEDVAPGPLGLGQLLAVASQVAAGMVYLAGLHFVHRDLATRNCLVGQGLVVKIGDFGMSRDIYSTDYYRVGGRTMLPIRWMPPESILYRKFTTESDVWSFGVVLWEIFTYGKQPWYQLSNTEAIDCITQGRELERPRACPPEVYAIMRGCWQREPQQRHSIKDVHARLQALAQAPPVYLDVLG
How it was run: as §1

[3] = target: protein kinases of the Z-LYTE panel (Homo sapiens, UniProt Q7KZI7)
Sequence of protein kinases of the Z-LYTE panel (Homo sapiens, UniProt Q7KZI7) (Q7KZI7 whole entry): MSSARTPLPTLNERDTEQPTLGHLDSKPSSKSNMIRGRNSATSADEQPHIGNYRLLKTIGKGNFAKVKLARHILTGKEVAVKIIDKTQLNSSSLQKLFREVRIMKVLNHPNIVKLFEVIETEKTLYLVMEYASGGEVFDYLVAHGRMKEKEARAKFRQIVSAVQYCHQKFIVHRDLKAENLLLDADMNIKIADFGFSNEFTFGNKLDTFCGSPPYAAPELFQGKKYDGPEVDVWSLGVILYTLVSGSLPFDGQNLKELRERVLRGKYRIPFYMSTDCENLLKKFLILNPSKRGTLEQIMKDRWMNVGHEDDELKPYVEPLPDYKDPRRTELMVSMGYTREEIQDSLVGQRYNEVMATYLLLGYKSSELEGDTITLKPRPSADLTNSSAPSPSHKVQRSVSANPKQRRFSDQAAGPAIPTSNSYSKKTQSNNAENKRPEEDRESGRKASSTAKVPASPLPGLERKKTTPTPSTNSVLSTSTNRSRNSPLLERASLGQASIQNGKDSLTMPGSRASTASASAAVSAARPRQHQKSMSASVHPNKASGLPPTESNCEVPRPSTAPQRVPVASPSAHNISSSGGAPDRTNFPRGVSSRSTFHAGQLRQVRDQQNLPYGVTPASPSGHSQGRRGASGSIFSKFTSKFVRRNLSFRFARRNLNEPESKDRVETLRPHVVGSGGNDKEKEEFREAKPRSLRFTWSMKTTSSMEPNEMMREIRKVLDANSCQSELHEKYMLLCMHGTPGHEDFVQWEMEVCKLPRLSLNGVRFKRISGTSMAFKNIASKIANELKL
How it was run: as §1

[4] = target: T2, protein kinases of the Z-LYTE panel (Homo sapiens, UniProt O15530); settings: PDK1, 1000 nM, [ATP] 100 μM
T2 sequence (O15530 1-556): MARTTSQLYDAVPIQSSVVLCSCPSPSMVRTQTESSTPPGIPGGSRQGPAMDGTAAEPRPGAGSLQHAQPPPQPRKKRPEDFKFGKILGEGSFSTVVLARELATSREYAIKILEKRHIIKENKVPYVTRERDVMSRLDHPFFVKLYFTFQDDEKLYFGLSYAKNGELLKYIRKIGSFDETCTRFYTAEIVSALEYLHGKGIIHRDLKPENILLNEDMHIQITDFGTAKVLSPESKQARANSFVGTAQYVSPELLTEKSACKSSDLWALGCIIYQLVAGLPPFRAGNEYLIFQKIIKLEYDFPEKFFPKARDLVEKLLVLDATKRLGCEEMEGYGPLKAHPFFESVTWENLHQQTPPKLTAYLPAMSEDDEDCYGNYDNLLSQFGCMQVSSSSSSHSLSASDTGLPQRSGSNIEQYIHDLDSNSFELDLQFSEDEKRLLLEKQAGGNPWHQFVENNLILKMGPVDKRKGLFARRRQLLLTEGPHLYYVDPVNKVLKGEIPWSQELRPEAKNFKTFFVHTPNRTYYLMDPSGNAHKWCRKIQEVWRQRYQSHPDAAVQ
How it was run: as §1

[5] = target: protein kinases of the Z-LYTE panel (Homo sapiens, UniProt O75582)
Sequence of protein kinases of the Z-LYTE panel (Homo sapiens, UniProt O75582) (O75582 whole entry): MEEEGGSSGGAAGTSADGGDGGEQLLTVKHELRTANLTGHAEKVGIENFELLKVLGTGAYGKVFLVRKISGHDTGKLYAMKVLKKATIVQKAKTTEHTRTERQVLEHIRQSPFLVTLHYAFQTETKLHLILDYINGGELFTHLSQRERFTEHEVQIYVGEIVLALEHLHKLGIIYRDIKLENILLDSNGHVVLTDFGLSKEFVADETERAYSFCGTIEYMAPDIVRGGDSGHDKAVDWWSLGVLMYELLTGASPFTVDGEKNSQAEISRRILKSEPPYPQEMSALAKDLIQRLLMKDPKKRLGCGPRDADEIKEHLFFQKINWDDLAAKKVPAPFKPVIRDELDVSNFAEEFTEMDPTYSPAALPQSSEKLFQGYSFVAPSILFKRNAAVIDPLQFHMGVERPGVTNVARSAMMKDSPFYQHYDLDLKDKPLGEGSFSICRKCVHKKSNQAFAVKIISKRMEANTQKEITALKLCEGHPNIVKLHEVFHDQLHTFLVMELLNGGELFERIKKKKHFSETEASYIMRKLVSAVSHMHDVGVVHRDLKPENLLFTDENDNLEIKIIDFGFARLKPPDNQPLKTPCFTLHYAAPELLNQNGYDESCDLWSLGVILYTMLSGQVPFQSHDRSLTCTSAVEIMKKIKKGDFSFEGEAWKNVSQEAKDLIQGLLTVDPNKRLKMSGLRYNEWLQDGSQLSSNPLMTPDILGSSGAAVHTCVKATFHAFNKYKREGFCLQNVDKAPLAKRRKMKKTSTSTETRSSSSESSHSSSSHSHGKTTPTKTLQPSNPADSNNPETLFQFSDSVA
How it was run: as §1

[6] = target: protein kinases of the Z-LYTE panel (Homo sapiens, UniProt O60674)
Sequence of protein kinases of the Z-LYTE panel (Homo sapiens, UniProt O60674) (O60674 whole entry): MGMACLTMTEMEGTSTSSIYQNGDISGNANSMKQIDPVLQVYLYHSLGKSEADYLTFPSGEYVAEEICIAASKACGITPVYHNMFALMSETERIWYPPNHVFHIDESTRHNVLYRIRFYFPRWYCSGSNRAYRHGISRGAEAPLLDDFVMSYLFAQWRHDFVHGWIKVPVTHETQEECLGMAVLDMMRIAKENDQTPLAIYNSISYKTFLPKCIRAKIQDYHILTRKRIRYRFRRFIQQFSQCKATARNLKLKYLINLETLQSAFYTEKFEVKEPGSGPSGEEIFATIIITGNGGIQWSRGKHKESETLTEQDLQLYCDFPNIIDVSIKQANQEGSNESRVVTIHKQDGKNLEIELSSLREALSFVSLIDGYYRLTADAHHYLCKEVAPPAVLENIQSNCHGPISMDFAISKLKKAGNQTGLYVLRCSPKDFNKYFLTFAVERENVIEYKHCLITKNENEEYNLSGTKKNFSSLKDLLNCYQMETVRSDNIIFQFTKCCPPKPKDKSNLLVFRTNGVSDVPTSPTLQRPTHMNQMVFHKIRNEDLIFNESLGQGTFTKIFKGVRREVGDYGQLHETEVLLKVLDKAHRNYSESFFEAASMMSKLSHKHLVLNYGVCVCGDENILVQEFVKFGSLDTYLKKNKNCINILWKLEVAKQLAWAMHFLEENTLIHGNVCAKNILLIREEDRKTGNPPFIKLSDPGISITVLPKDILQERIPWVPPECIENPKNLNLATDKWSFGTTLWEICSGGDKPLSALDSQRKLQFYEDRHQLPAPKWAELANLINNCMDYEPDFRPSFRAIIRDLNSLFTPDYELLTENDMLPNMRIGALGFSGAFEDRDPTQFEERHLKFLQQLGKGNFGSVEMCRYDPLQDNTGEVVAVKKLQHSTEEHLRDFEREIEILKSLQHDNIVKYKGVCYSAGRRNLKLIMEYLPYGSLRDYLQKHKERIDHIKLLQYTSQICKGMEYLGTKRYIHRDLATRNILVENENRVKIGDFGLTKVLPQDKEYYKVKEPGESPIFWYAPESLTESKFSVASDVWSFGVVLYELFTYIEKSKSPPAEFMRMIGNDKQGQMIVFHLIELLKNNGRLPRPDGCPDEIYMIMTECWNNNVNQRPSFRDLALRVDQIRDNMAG
How it was run: as §1

Structure (SMILES): CCN1CCN(c2ccc(Nc3cc(Nc4cccc5c4N(C(C)=O)CC5)ccn3)cc2)CC1 [Compound 1938]
- inhibition at 1 µM ([1]; read-out: % Inhibition Point 1): 7%
- inhibition at 1 µM ([1]; read-out: % Inhibition Point 2): 8%
- inhibition at 1 µM ([1]; read-out: % Inhibition mean): 7.4%
- inhibition at 1 µM ([2]; read-out: % Inhibition Point 1): 26%
- inhibition at 1 µM ([2]; read-out: % Inhibition Point 2): 20%
- inhibition at 1 µM ([2]; read-out: % Inhibition mean): 23%
- inhibition at 1 µM ([3]; read-out: % Inhibition Point 1): 6.48%
- inhibition at 1 µM ([3]; read-out: % Inhibition Point 2): 4%
- inhibition at 1 µM ([3]; read-out: % Inhibition mean): 5.34%
- inhibition at 1 µM ([4]; read-out: % Inhibition Point 1): 6%
- inhibition at 1 µM ([4]; read-out: % Inhibition Point 2): 7%
- inhibition at 1 µM ([4]; read-out: % Inhibition mean): 6%
- inhibition at 1 µM ([5]; read-out: % Inhibition Point 1): 1.64%
- inhibition at 1 µM ([5]; read-out: % Inhibition Point 2): 4%
- inhibition at 1 µM ([5]; read-out: % Inhibition mean): 3%
- inhibition at 1 µM ([6]; read-out: % Inhibition Point 1): 6.6%
- inhibition at 1 µM ([6]; read-out: % Inhibition Point 2): 9%
- inhibition at 1 µM ([6]; read-out: % Inhibition mean): 8%
